In US20100247551A1, “Use of Lipocalin 2 in the Regulation of Insulin Sensitivity” (priority 2006, published 2010):

Tests used:
[1] = tested on: Lcn2 expression in 3T3-L1 adipocytes; test: Lcn2 mRNA expression in mature 3T3-L1 adipocytes (Q-PCR); type: cell-based, mouse; conditions: Dex 1 μM or TNF 4 ng/μL (FIG. 1)
Description: Mature 3T3-L1 adipocytes were treated with Dex (1 μM) or TNF (4 ng/μL) in the presence or absence of rosiglitazone (Rosi; 1 μM), and Lcn2 mRNA levels were measured by Q-PCR. Data presented as mean±SD, *p<0.05, ***p=0.005 relative to no Rosi.

[2] = tested on: H4IIe hepatocytes; test: Insulin resistance in H4IIe hepatocytes (glucose production, glucose-6-phosphatase mRNA expression); type: cell-based; conditions: liganded Lcn2 10 nM, with or without insulin 100 nM (FIG. 6)
Description: FIG. 6A: Left, Glucose production induced by liganded Lcn2 (10 nM) or Dex (250 nM) in the presence or absence of insulin (100 nM). Right, effect of liganded Lcn2 (10 nM) or Dex (250 nM) on glucose-6-phosphatase mRNA expression in the presence or absence of insulin (100 nM). FIG. 6B: Dose response of liganded Lcn2 on glucose-6-phosphatase expression. FIG. 6C: Effect of apo-Lcn2 on glucose-6-phosphatase expression. For all panels, mean±SD, p<0.05, **p<0.01, n=3.

insulin resistance (glucose production, glucose-6-phosphatase expression) [2]	Molecule	Lcn2 expression [1]
–	TNF-α	dramatically induced
induces insulin resistance	recombinant Lcn2: exogenous recombinant lipocalin 2 protein (protein, UniProt P80188 21-198, looked up) Neutrophil …: QDSTSDLIPAPPLSKVPLQQNFQDNQFQGKWYVVGLAGNAILREDKDPQKMYATIYELKEDKSYNVTSVLFRKKKCDYWIRTFVPGCQPGEFTLGNIKSYPGLTSYLVRVVSTNYNQHAMVFFKKVSQNREYFKITLYGRTKELTSELKENFIRFSKSLGLPENHIVFPVPIDQCIDG	–
